The nature of data set [1]: Toxicity in nude mouse xenografted with human SW1990 cells assessed as heart damage at 15 mg/kg, ip administered for 28 days by H and E staining based fluorescence microscopic analysis. Type of data set: organism-based. To be noted: in vivo, 672 h, time 28 day. (In general: In xenograft studies the graft and the host belong to different species.)
A short description of data set [2]: Toxicity in nude mouse xenografted with human SW1990 cells assessed as liver damage at 15 mg/kg, ip administered for 28 days in presence of 45 mg/kg Olaparib by H and E staining based fluorescence microscopic analysis. Format: organism-based. To be noted: in vivo, 672 h, time 28 day.
Data set [3] relates to SW1990. Nature of the data set: Induction of apoptosis in human SW1990 cells assessed as necrotic cells at 4 uM measured after 4 days by Annexin V-FITC/propidium iodide staining based flow cytometry (reference value: 2.45%). Type of data set: functional. The following applies: time 4 day. (In general: Flow cytometry measures light scatter and fluorescence of single cells or particles in a stream.)

Data set [4] relates to SW1990. In words: Induction of apoptosis in human SW1990 cells assessed as late apoptotic cells at 4 uM measured after 4 days by Annexin V-FITC and propidium iodide staining based flow cytometry (reference value: 7.23%). Format: functional. The following applies: time 4 day.
For data set [5], the system named is SW1990. Nature of the data set: Induction of cell cycle arrest in human SW1990 cells assessed as accumulation of cells at S phase at 4 uM incubated for 4 days by propidium iodide staining based flow cytometry (reference value: 29.32%). The following applies: time 4 day. Format: functional.
The test system of data set [6] is SW1990. In words: Induction of cell cycle arrest in human SW1990 cells assessed as accumulation of cells at G0/G1 phase at 1 uM incubated for 4 days in presence of 3 uM Olaparib by propidium iodide staining based flow cytometry (reference value: 64.79%). Type of data set: functional. To be noted: time 4 day.
The subject of data set [7] is SW1990. In words: Effect on CDC25A gene expression in human SW1990 cells at 4 uM by Q-PCR analysis. Type of data set: functional, cell-based.
For data set [8], the system named is SW1990. Nature of the data set: Effect on E2F2 gene expression in human SW1990 cells at 4 uM by Q-PCR analysis. Format: functional, cell-based.
Data set [9] deals with SW1990. In words: Effect on HEXIM1 gene expression in human SW1990 cells at 4 uM by Q-PCR analysis. Type of data set: functional, cell-based.
Data set [10] deals with SW1990. Nature of the data set: Effect on c-Myc gene expression in human SW1990 cells at 1 uM in presence of Olaparib by Q-PCR analysis. Type of data set: functional, cell-based.
The test system of data set [11] is SW1990. Nature of the data set: Effect on CDC25B gene expression in human SW1990 cells at 1 uM in presence of Olaparib by Q-PCR analysis. Format: functional, cell-based.
Data set [12] concerns SW1990. Nature of the data set: Effect on BRCA1 gene expression in human SW1990 cells at 1 uM in presence of Olaparib by Q-PCR analysis. Type of data set: functional, cell-based.
The test system of data set [13] is SW1990. In words: Downregulation of Ki67 expression in human SW1990 cells at 15 mg/kg, ip in presence of 45 mg/kg, ip Olaparib measured after 28 days by immuno histochemical staining based fluorescence microscopic analysis. The following applies: time 28.0 day. Format: functional, organism-based.
The species named for data set [14] is Mus musculus. To be noted: dose 15.0 mg/kg, route ip, time 28.0 day.
Data set [15] deals with SW1990. In words: Antitumor activity against human SW1990 cells xenografted in nude mouse assessed as reduction in tumor size at 30 mg/kg, ip administered for 28 days and measured every 3 days by vernier caliper method. Type of data set: functional, organism-based. To be noted: time 28.0 day.
In data set [16] the test system is Mus musculus. Nature of the data set: Inhibition of BRD4 expression in nude mouse xenografted with human SW1900 cells at 30 mg/kg, ip administered for 28 days by Q-PCR analysis. The following applies: time 28.0 day. Format: functional, organism-based.
Data set [17] concerns SW1990. Nature of the data set: Downregulation of BRD4 expression in human SW1990 cells at 2 uM measured after 4 days by Western blot analysis. Type of data set: functional, cell-based. The following applies: time 4.0 day. A general note: Immunoblotting shows a protein as a band on a membrane.
Data set [18] deals with SW1990. In words: Induction of apoptosis in human SW1990 cells assessed as late apoptotic cells at 1 uM measured after 4 days by Annexin V-FITC and propidium iodide staining based flow cytometry (reference value: 7.23%). Format: functional. To be noted: time 4 day.
Data set [19] relates to SW1990. Nature of the data set: Induction of apoptosis in human SW1990 cells assessed as late apoptotic cells at 2 uM measured after 4 days by Annexin V-FITC and propidium iodide staining based flow cytometry (reference value: 7.23%). Format: functional. The following applies: time 4 day.
Data set [20] relates to SW1990. Nature of the data set: Induction of cell cycle arrest in human SW1990 cells assessed as accumulation of cells at S phase at 2 uM incubated for 4 days by propidium iodide staining based flow cytometry (reference value: 29.32%). Type of data set: functional. To be noted: time 4 day.
The subject of data set [21] is Mus musculus. In words: Inhibition of CDC25B expression in nude mouse xenografted with human SW1990 cells at 30 mg/kg, ip measured after 4 days by Q-PCR analysis. Type of data set: functional, organism-based. To be noted: time 4.0 day.
In data set [22] the test system is Mus musculus. In words: Inhibition of E2F2 expression in nude mouse xenografted with human SW1990 cells at 30 mg/kg, ip measured after 4 days by Western blot analysis. Type of data set: functional, organism-based. The following applies: time 4.0 day.
Data set [23] relates to Mus musculus. Nature of the data set: Inhibition of CCNB1 expression in nude mouse xenografted with human SW1990 cells at 30 mg/kg, ip measured after 4 days by Western blot analysis. The following applies: time 4.0 day. Format: functional, organism-based.
Data set [24] has as its system SW1990. Nature of the data set: Induction of DNA damage in human SW1990 cells assessed as increase in gammaH2AX expression at 1 to 2 uM incubated for 4 days by DAPI staining based laser confocal microscopic analysis. Type of data set: functional, cell-based. The following applies: dose 1-2 µM, time 4.0 day.
For data set [25], the system named is SW1990. In words: Inhibition of homologous recombinant repair in human SW1990 cells assessed as reversal of Olaparib-induced MDC1 expression at 1 to 2 uM after 4 days by Western blot analysis. Format: functional, cell-based. To be noted: dose 1-2 µM, time 4.0 day.
In data set [26] the test system is SW1990. In words: Effect on c-Myc gene expression in human SW1990 cells at 1 to 2 uM by Q-PCR analysis. Type of data set: functional, cell-based. To be noted: dose 1-2 µM.
Data set [27] deals with SW1990. In words: Effect on CDC25B gene expression in human SW1990 cells at 1 to 2 uM by Q-PCR analysis. Type of data set: functional, cell-based. To be noted: dose 1-2 µM.
For data set [28], the system named is SW1990. Nature of the data set: Effect on CDK1 gene expression in human SW1990 cells at 1 to 2 uM by Q-PCR analysis. Format: functional, cell-based. The following applies: dose 1-2 µM.
Data set [29] has as its system SW1990. Nature of the data set: Effect on FOXM1 gene expression in human SW1990 cells at 1 to 2 uM by Q-PCR analysis. Format: functional, cell-based. The following applies: dose 1-2 µM.
Data set [30] has as its system SW1990. In words: Effect on MDC1 gene expression in human SW1990 cells at 1 to 2 uM by Q-PCR analysis. Format: functional, cell-based. To be noted: dose 1-2 µM.
Data set [31] has as its system SW1990. Nature of the data set: Inhibition of E2F2 protein expression in human SW1990 cells at 1 to 2 uM measured after 4 days by Western blot analysis. Type of data set: functional, cell-based. The following applies: dose 1-2 µM, time 4.0 day.
Data set [32] relates to SW1990. Nature of the data set: Inhibition of CCND1 protein expression in human SW1990 cells at 1 to 2 uM measured after 4 days by Western blot analysis. Format: functional, cell-based. To be noted: dose 1-2 µM, time 4.0 day.
For data set [33], the system named is SW1990. Nature of the data set: Upregulation of E2F2 expression in human SW1990 cells at 6 uM measured after 4 days by Western blot analysis. Type of data set: functional, cell-based. To be noted: time 4.0 day.
Data set [34] relates to Mus musculus. In words: Upregulation of CDK6 expression in nude mouse xenografted with human SW1990 cells at 45 mg/kg, ip measured after 4 days by Western blot analysis. Format: functional, organism-based. To be noted: time 4.0 day.
Data set [35] relates to Mus musculus. In words: Upregulation of CCNB1 expression in nude mouse xenografted with human SW1990 cells at 45 mg/kg, ip measured after 4 days by Western blot analysis. To be noted: time 4.0 day. Type of data set: functional, organism-based.
Data set [36] relates to Mus musculus. Nature of the data set: Upregulation of CDK1 expression in nude mouse xenografted with human SW1990 cells at 45 mg/kg, ip measured after 4 days by Western blot analysis. Type of data set: functional, organism-based. To be noted: time 4.0 day.
The subject of data set [37] is SW1990. Nature of the data set: Effect on CDC25B gene expression in human SW1990 cells at 6 uM by Q-PCR analysis. Type of data set: functional, cell-based.
The test system of data set [38] is SW1990. In words: Effect on FOXM1 gene expression in human SW1990 cells at 6 uM by Q-PCR analysis. Format: functional, cell-based.
For data set [39], the system named is SW1990. In words: Upregulation of Rad51 expression in human SW1990 cells at 6 uM measured after 4 days by Western blot analysis. Format: functional, cell-based. To be noted: time 4.0 day.

The source made the active and inactive calls. The calls are words filed in the database; no cut-off is given here.

In the case of `Cc1sc2c(c1C)C(c1ccc(Cl)cc1)=N[C@@H](CC(=O)OC(C)(C)C)c1nnc(C)n1-2`, the Activity entry in data set [1] was “Non-Toxic”; in data set [2], “Non-Toxic”; in data set [3] it was 3.35%; in [4] it was 24.9%; in data set [5], 19.43%; in data set [6], 71.53%. The outcome in [7], in data set [8], in data set [9], in data set [10], in [11] and in [12] was Active. In [13], the result was Active. Further, the inhibition entry in [14] is “Active”.

`Cc1noc(C)c1-c1ccc2c(c1)C(c1ccccc1)N(Cc1nc3c(C(N)=O)cccc3[nH]1)C(=O)N2C` (centres undefined): the outcome in data set [15], in data set [17], in data set [24], in [26], in data set [27] and in data set [28] was Active. The outcome in data set [29] and in data set [30] was Active. Moreover, the inhibition result in [16], in [21], in data set [22], in data set [23], in [25] and in [31] was “Active” throughout. Further, the inhibition entry in [32] was “Active”. Besides, the Activity in data set [18] was 33.6%; in data set [19], 39.5%; in [20] it was 9%.

On to `O=C(c1cc(Cc2n[nH]c(=O)c3ccccc23)ccc1F)N1CCN(C(=O)C2CC2)CC1` [OLAPARIB], for which the result in [33], in data set [34], in data set [35], in [36], in data set [37] and in [38] was Active. Also, the outcome in data set [39] was Active.

Values taken from ChEMBL document CHEMBL5131471, “Design, synthesis and mechanism studies of novel dual PARP1/BRD4 inhibitors against pancreatic cancer” (Eur J Med Chem, 2022).
